Assay: GHS categories as the set defines them, by LD50: 1 up to 5, 2 up to 50, 3 up to 300, 4 up to 2000, 5 above 2000 mg/kg
Conditions: rat; in vivo; po

| Compound | GHS category |
| --- | --- |
| CS(=O)(=O)c1ccc(C(=O)C2C(=O)CCCC2=O)c(Cl)c1 | 5 |
| C=CC(C)(CCC=C(C)C)OC=O (stereo not given) | 5 |
| CCOC[C@@H]1[C@@H](O)[C@H](O[C@H]2[C@H](O)[C@@H](OCC)[C@H](O)O[C@@H]2CO)O[C@H](COCC)[C@H]1O | 5 |
| CCOP(=S)(OCC)N(SN(C)C(=O)ON=C(C)SC)C1CCCCC1 | 3 |
| CC(c1ccccc1)C1Nc2cc(Cl)c(S(N)(=O)=O)cc2S(=O)(=O)N1 (stereo not given) | 5 |
| CCCCCC(=O)CC | 5 |
| CCCCCC(=O)[Si](C)(C)C | 5 |
| CC(C)(C)c1ccc2oc(-c3ccc(C=Cc4ccc(-c5ccccc5)cc4)cc3)nc2c1 | 5 |
| COc1ccc(CC(C)NCC(O)c2ccc(O)c(CO)c2)cc1 (stereo not given) | 4 |
| CC1Oc2cc(C(=O)c3ccc(Cl)cc3)ccc2NC1=O (stereo not given) | 5 |
| CNC(=O)Oc1cc(C)c(S(C)(=O)=O)c(C)c1 | 4 |
| CCCCC(=O)N(Cc1ccc(-c2ccccc2-c2nnn[nH]2)cc1)[C@@H](C(=O)O)C(C)C | 5 |
| CC12CCC3C(CC=C4C=C(N5CCCC5)CCC43C)C1CCC2=O (stereo not given) | 5 |
| CCCCCCCCCCCCCc1cccc(O)c1C(=O)O | 4 |
| OC(Cc1ccccc1Cl)(Cn1[nH]cnc1=S)C1(Cl)CC1 (stereo not given) | 5 |
| O=C(O)c1[nH]n(-c2ccc(S(=O)(=O)O)cc2)c(=O)c1/N=N/c1ccc(S(=O)(=O)O)cc1 | 5 |
| CCCCCCCCCC(C)C=O (stereo not given) | 5 |
| CC1(C)Oc2cc(C(=O)c3ccc(Cl)cc3)ccc2NC1=O | 5 |
| Clc1ccc(N/C(=N/C2CCCCC2)c2ccccc2)cc1Cl | 5 |
| CCOC(=O)c1cnn(-c2cccc(C)c2)c1C#N | 4 |
| CCCCCCCCCCCCCC(=O)OC(C)C | 5 |
| COCCOc1nc(Nc2ccc(C=Cc3ccc(Nc4nc(OCCOC)nc(N(C)CCS(=O)(=O)O)n4)cc3S(=O)(=O)O)c(S(=O)(=O)O)c2)nc(N(C)CCS(=O)(=O)O)n1 | 5 |
| CC(=CCc1c(O)c(Cl)c(C)c(C=O)c1O)CCC=C(C)[C@@H]1CC(=O)C(C)(C)O1 | 5 |

| Compound | GHS category |
| --- | --- |
| COc1ccc(C(=O)c2cccc(C)c2)cc1C | 5 |
| C=CC(=C)CC/C=C(\C)CCC=C(C)C | 5 |
| Nc1nc2cc([N+](=O)[O-])ccc2o1 | 4 |
| Cc1cccc2ncc(C(=O)NC34CC5CC(CC(C5)C3)C4)c(=O)n12 | 3 |
| COC(=O)CSP(=S)(OC)OC | 5 |
| O=S(=O)(O)c1ccc(N2N=C(c3ccc(Cl)cc3)CC2c2ccccc2)cc1 (stereo not given) | 5 |
| CN[C@@H]1[C@H](O[C@H]2[C@H](O[C@@H]3[C@H](O)[C@@H](O)[C@@H](OC(N)=O)[C@@H](O)[C@@H]3NC(=N)N)O[C@@H](C)[C@]2(O)CO)O[C@@H](CO)[C@H](O)[C@H]1O | 5 |
| CCCCCCOCC(OC)OC | 5 |
| CCCCCCCCCCCCCC[Si](C)(O[Si](C)(C)C)O[Si](C)(C)C | 5 |
| CN1C(C(=O)Nc2ccc(O)cn2)=C(O)c2sccc2S1(=O)=O | 2 |
| Cc1c(C)c2c(c(C)c1OC(=O)c1cccnc1)CC[C@@](C)(CCC[C@H](C)CCC[C@H](C)CCCC(C)C)O2 (racemic) | 5 |
| O=c1nc(-c2cccnc2)[nH]c2ncccc12 | 4 |
| COC[C@H]1CO[C@@](Cn2cncn2)(c2cc3ccccc3o2)O1 | 4 |
| CCCCCCC(COC(=O)c1cccnc1)(COC(=O)c1cccnc1)COC(=O)c1cccnc1 | 5 |
| CC1CC(OC(=O)C(Oc2ccccc2Cl)C(C)C)CC(C)(C)C1 (stereo not given) | 5 |
| C=CC(=O)OCCN(C)S(=O)(=O)C(F)(F)C(F)(F)C(F)(F)C(F)(F)F (racemic) | 5 |
| O=C(O)c1cc(Nc2ccccc2)c(C(=O)O)cc1Nc1ccccc1 | 5 |
| Clc1ccc(Cl)nn1 | 3 |
| CC(C)(c1cc(Br)c(OCC(Br)CBr)c(Br)c1)c1cc(Br)c(OCC(Br)CBr)c(Br)c1 (stereo not given) | 5 |
| CC/C=C\CCOC=O | 5 |
| c1ccc(CN(Cc2ccccc2)Sc2nc3ccccc3s2)cc1 | 5 |
| COc1ccc(C2NC(=O)CCS2)cc1OC (stereo not given) | 5 |
| CO[C@@]1(NC(=O)CSC(F)F)C(=O)N2C(C(=O)O)=C(CSc3nnnn3CCO)CO[C@@H]21 | 5 |

| Compound | GHS category |
| --- | --- |
| CCC(=O)C=Cc1ccc(OC)cc1 | 5 |
| O=C(O)c1cc(O)ccc1Nc1cccc(C(F)(F)F)c1 | 4 |
| CCCCC(CC)COC(=O)c1ccc([N+](=O)[O-])cc1 (stereo not given) | 5 |
| CC1=CC2[C@@H](C(=O)O1)C2(C)C (stereo not given in full) | 5 |
| CO[C@]1(C)CC[C@@]23C[C@@H]1C(C)(C)[C@@H]2CC[C@H]3C | 5 |
| CC(=C(CCS(C)=O)SSC(CCS(C)=O)=C(C)N(C=O)Cc1cnc(C)nc1N)N(C=O)Cc1cnc(C)nc1N (stereo not given) | 4 |
| COC(=O)[C@H]1CCCO1 | 5 |
| CCC(C)O[Si](OC(C)CC)(OC(C)CC)OC(C)CC (stereo not given) | 5 |
| Cn1nnnc1SCCCC(=O)c1cccs1 | 4 |
| c1cc2c(c(OCCN3CCCCC3)c1)OCCO2 | 5 |
| C=CC1=C(C(=O)O)N2C(=O)[C@@H](NC(=O)/C(=N\O)c3csc(N)n3)[C@H]2SC1 | 5 |
| O=C1NCCCN1CN1CCOCC1 | 5 |
| CCCC(=O)c1ccc2c(c1)oc(=O)n2C | 5 |
| COC(=O)c1ccccc1S(=O)(=O)NC(=O)Nc1nc(C)cc(C)n1 | 5 |
| Cn1c(=O)c2[nH]c(=O)[nH]c2n(C)c1=O | 5 |
| CCCC(=O)OC[C@@H](OC(=O)CCC)[C@@H](OC(=O)CCC)[C@H](Cn1c2nc(=O)[nH]c(=O)c-2nc2cc(C)c(C)cc21)OC(=O)CCC | 5 |
| CC1(C)S[C@@H]2[C@H](NC(=O)C(C(=O)O)c3ccccc3)C(=O)N2[C@H]1C(=O)O (stereo not given in full) | 5 |
| CCOC(=O)C(=O)Nc1cc(Cl)ncn1 | 4 |
| CC(C)(C)C1CCC(C2=C(O)c3ccccc3C(=O)C2=O)CC1 (stereo not given) | 5 |
| Cc1cc(Cl)ccc1OC(C)C(=O)Nc1ccccc1 (stereo not given) | 5 |
| CCC(=O)OC(C)(C)C1CC=C(C)CC1 (stereo not given) | 5 |
| Cc1cc(CCCCCCCOc2ccc(C3=NCCO3)cc2)on1 | 5 |
| CN1C(=O)C(C)(C)Oc2cc(C(=O)C=Cc3ccc(O)cc3)ccc21 | 5 |

| Compound | GHS category |
| --- | --- |
| CC(O)C(O)C(=O)C(O)C(O)Oc1cccc2c1C(=O)c1c(O)cc(C(=O)O)cc1C2C1c2cc(C(=O)O)cc(O)c2C(=O)c2c(OC(O)C(O)C(=O)C(O)C(C)O)cccc21 (stereo not given) | 5 |
| O=S(=O)(CCO)CS(=O)(=O)CCO | 5 |
| COCc1c(Cc2ccc(-c3ccccc3-c3nn[nH]n3)cc2)c(=O)nc2nc[nH]n12 | 4 |
| C=CC(C)=CCC1OC1(C)C (stereo not given) | 5 |
| O=C(Nc1ccc(Cc2ccc(NC(=O)NC3CCCCC3)cc2)cc1)NC1CCCCC1 | 5 |
| CC(CCO)CCCC(C)(C)O (stereo not given) | 5 |
| CC1Oc2cc(C(=O)c3ccc(Cl)cc3)ccc2N(C)C1=O (stereo not given) | 5 |
| CC(C)(c1ccccc1)c1cc(-n2nc3ccccc3n2)c(O)c(C(C)(C)c2ccccc2)c1 | 5 |
| O=C(C=Cc1ccccc1)NCCO | 5 |
| CCCCCCOC=O | 5 |
| CCCCCCCCCCCCOCCOCCOCCOCCOCCOCCOCCOCCOCCOCCOCCOCCOCCOCCOCCOCCOCCOCCOCCOCCOCCOCCOCCO | 5 |
| CCOCCOC(=O)C(=O)Nc1nc(-c2ccccc2)cs1 | 5 |
| CCCCCCCCC=CCCCCCCOC(C)=O | 5 |
| C[C@]12CCC(=O)C=C1C=C[C@@H]1[C@@H]2CC[C@@]2(C)[C@H]1CC[C@@]21CCC(=O)O1 | 5 |
| CCC(Oc1ccc(C(C)(C)CC)cc1C(C)(C)CC)C(=O)O (stereo not given) | 5 |
| CC1(C(=O)Nc2ccc(O)c(Cl)c2Cl)CCCCC1 | 5 |
| CS(C)(=O)=O | 5 |
| CCCCCCCCCCCCCCCCBr | 5 |
| O=S(=O)(O)c1cc(O)ccc1O | 5 |
| O=C(O)c1cc(O)[nH]c(=O)c1 | 5 |
| NC(=O)Oc1ccccc1C(=O)Oc1ccc([N+](=O)[O-])cc1 | 5 |
| O=[N+]([O-])c1ccc2c(c1)COP(=S)(NC1CCCCC1)O2 (stereo not given) | 3 |
| CCOc1nc(NC)nc(NC(=O)NS(=O)(=O)c2ccccc2C(=O)OC)n1 | 5 |

| Compound | GHS category |
| --- | --- |
| CC(C)=CCCC(C)CCOCC=O (stereo not given) | 5 |
| NC(N)=NCc1ccc2c(c1)OCCO2 | 5 |
| COc1cc(OC)nc(NC(=O)NS(=O)(=O)Cc2ccccc2C(=O)O)n1 | 5 |
| CCOC(=O)CNc1nc(Cl)nc(NC(C)C)n1 | 5 |
| COc1ccc(C(=O)N2CCN(c3ccc4c(c3)CCC(=O)N4)CC2)cc1OC | 5 |
| CCOC(=O)c1sc(-c2ccc(OCC(C)C)c(C=O)c2)nc1C | 5 |
| COc1ccc(Cl)cc1N/C(=N/C1CCCCC1)c1cccc(C)c1 | 4 |
| O=c1c2cc(Oc3ccc(Cl)cc3)ccc2nnn1Cc1cccnc1 | 5 |
| COC1(NC(=O)C2SC(=C(C(N)=O)C(=O)O)S2)C(=O)N2C(C(=O)O)=C(CSc3nnnn3C)CSC21 (stereo not given) | 5 |
| CC(=O)c1ccc2c(c1)OC(C)C(=O)N2C (stereo not given) | 5 |
| CN(Cc1ccc(C(C)(C)C)cc1)Cc1cccc2ccccc12 | 5 |
| COc1ccc2cc3[n+](cc2c1OC)CCc1cc2c(cc1-3)OCO2 | 5 |
| COc1ccccc1OC(=O)Cc1ccc(C(=O)c2ccc(C)cc2)n1C | 4 |
| CC=COC | 5 |
| CC/C=C\CCOC(=O)Cc1ccccc1 | 5 |
| O=S(=O)(O)c1ccc(/N=N/c2cc(S(=O)(=O)O)c3ccccc3c2O)c2ccccc12 | 5 |
| CC(C)(C)CC(C)(C)c1ccc(O)c(-n2nc3ccccc3n2)c1 | 5 |
| COC(=O)/C=C(/C)N[C@@H](C(=O)O)c1ccc(O)cc1 | 5 |
| CC(C)=CCC/C(C)=C/COC(=O)C(C)C | 5 |
| C[Si](C)(C)[Si](C)(C)C | 5 |
| N#CCC(=O)c1ccccc1Cl | 5 |
| COC(=O)CCCCCCCCC(=O)OC | 5 |
| CC(SCC(=O)O)c1ccc2c(c1)Cc1ccccc1-2 (stereo not given) | 4 |

Source: the CATMoS acute toxicity set (Mansouri et al. 2021)
